Test results taken from PMC8466854, “Molecular Determinant of DIDS Analogs Targeting RAD51 Activity” (Molecules, 2021).
Like-named read-outs stand apart in the source and are kept apart here.

Experiments:
RAD51 nucleofilament = molecular target: T1, RAD51 nucleofilament (Homo sapiens, UniProt Q06609); assay: DNA binding assay by bio-layer interferometry (BLItz), drug added after RAD51 is bound to ssDNA: nucleofilament dissociation; settings: drug added at 40 µM after association of RAD51 with ssDNA
T1 construct: His; made in house; host or cells: Escherichia coli BL21-DE3
T1 sequence (Q06609 1-339): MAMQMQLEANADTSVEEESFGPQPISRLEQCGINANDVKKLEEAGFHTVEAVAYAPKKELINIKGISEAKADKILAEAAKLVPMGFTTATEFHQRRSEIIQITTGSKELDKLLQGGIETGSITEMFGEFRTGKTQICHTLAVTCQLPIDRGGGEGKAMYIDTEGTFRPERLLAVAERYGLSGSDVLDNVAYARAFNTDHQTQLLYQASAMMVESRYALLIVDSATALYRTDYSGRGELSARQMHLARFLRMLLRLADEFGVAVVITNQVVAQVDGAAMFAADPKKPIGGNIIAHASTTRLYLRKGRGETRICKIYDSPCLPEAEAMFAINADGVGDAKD
Procedure: (§1) Figure 3 DIDS derivatives modulate the RAD51 nucleofilament formation. The association and dissociation between RAD51 and ssDNA were evaluated by Blitz interferometry. RAD51 (2 µM) was pre-incubated in phosphate buffer in absence or presence of each molecule at different concentrations before the measurement. The association phase followed until 50 s while the dissociation phase was monitored until 80 or 90 s, as indicated in graphs. (A) Effect of DIDS family on the ssDNA-RAD51 association was evaluated at 40 µM concentration of each molecule including DIDS, DADS, DAZDS, DNDS, and SITS. (B) DIDS, (C) DAZDS, and (D) SITS were incubated with RAD51 at increasing concentrations of 2, 10, and 20 µM for 5 min before the measurement by BLItz approach. (E) The percent of nucleofilament formation in presence of stilbene molecule was calculated in comparison to the condition in absence of drug after 50 s. This percentage was presented in function to the increasing concentration (from 2 to 20 µM) of each small molecule. (F) RAD51 associates with ssDNA until 50 s, and then each molecule is added at 40 µM as indicated by the narrow in the graph.
To this purpose, we incubated RAD51 with ssDNA, then we added the drug, and we measured the dissociation kinetic of RAD51 nucleofilament (Figure 3F).
(§2) PolydT DNA (1 µM) is biotinylated to allow its binding to the streptavidin-coated biosensor. Two methods of evaluation are used: the former by pre-incubating RAD51 with the drug to test and the latter by adding the drug after RAD51 is bound to DNA. In the first case, 2 µM RAD51 is incubated with the drug for […] on ice, then RAD51-ssDNA binding measurement is performed (baseline phase: 10 s; association phase: 40 s; dissociation phase: 30 s). In the second case, RAD51-ssDNA binding is analyzed, and after the association phase, the drug is added to the reaction and dissociation effect is measured (baseline phase: 10 s; association phase: 50 s; dissociation phase: 40 s). For the two cases, reaction buffer is composed of Phosphate Buffer saline (PBS) and 1 mM ATP. The tip is regenerated with 50 mM NaOH during 40 s before reuse. Measures are realized on a BLItz device from ForteBio.

RAD51 [1] = molecular target: T2, RAD51 (Homo sapiens, UniProt Q06609); assay: D-loop assay (RAD51-mediated D-loop formation); assay type: biochemical; settings: for Effect on D-loop structure formation: increasing concentration until 100 µM
T2 construct: His; made in house; host or cells: Escherichia coli BL21-DE3
T2 sequence (Q06609 1-339): T1 sequence (Q06609 1-339)
Procedure: Firstly, we incubated RAD51 with increasing concentrations of DIDS (from 1 to 100 µM) and then we calculated the percent of D-loop by quantifying the shifted band in comparison to the control condition in absence of DIDS (Figure 2A).
(A) D-loop structures in presence of increasing concentration of DIDS analogs (5, 25, 50, 145, and 100 µM) were separated and visualized on agarose gel. Last lane corresponds to the control condition without DIDS-derived molecule. (B) After quantification of signal intensity of shifted band corresponding to D-loop structure, the percent of D-loop is calculated in comparison to the condition in absence of drug and presented in relation to the increasing concentration (from 1 to 100 µM) of each small molecule. Three independent experiments were performed and each error bar represents s.d. statistical analysis.
An IRD700 100 bp ssDNA probe (Integrated DNA Technologies, Leuven, Belgium) is used to assess D-loop formation activity of RAD51. Reactional buffer is prepared (25 mM Tris-HCl pH7.5; 1 mM DTT; 1 mM ATP; 1 mM CaCl2; qsp water) in the presence of 1 µM ssDNA probe. RAD51 is then added to the reaction, and the mixture is incubated for 5 min at 37 °C. Plasmid DNA (3 mM) is next added to the reaction for a final volume of 10 µL and incubated at 37 °C for 15 min. Reaction is deproteinized by adding stop buffer (20 mM Tris-HCl pH7.5; 5 mg/mL proteinase K; qsp water) and the mixture is incubated for 20 min at 37 °C.

RAD51 [2] = molecular target: T2, RAD51; assay: RAD51 self-association by BS3 chemical cross-linking; assay type: biochemical; settings: 50 µM of drug; for Effect on oligomer/monomer migration profile (self-association of RAD51): RAD51 8.5 µM, BS3 cross-link, SDS-PAGE; for Decrease of polymerization rate (oligomer/monomer form intensity ratio): three independent experiments
From the text: The mechanism of action of these DIDS analogs molecules remains unclear, but they probably act on the protein–protein interaction site of RAD51. In order to assess their possible effect on the subunit–subunit RAD51 association, we investigated the oligomerization level of RAD51 in presence of these small molecules. By using BS3 cross-linker, we fixed the quaternary structure of RAD51 in absence or in presence of the five stilbene molecules. Oligomer and monomer forms were separated on SDS-PAGE and stained with Coomassie blue (Figure 4A). Oligomer forms include dimer, trimer, and high polymer while monomer form is well separated at 37 kDa.
Figure 4 Self-association of RAD51 is inhibited in the presence of DIDS, SITS, and DAZDS. (A) The polymerization of RAD51 was estimated by cross-link approach (see Material and Method section). (B) Oligomer and monomer forms ratio is presented as a histogram graph. Three independent experiments were performed and statistical analysis was performed using paired Student’s t-test. Statistical significance was assumed at ** p < 0.01, *** p < 0.001. Each error bar represents s.d. statistical analysis.
RAD51 at 8.5 µM was incubated with the indicated concentrations of chemical compounds for 5 min at room temperature in a buffer containing 20 mM sodium phosphate, 50 mM azidol, 1 mM MgCl2, and 1 mM ATP. The protein was cross-linked with 4.2 µM of BS3 (bis(sulfosuccinimidyl)suberate, Sigma) at room temperature for 30 min. Then the reaction was stopped by addition of Tris-HCl pH 8.1 at final concentration 33 mM for 15 min at room temperature. The sample was separated by SDS-PAGE at 10% and analyzed by Western blotting. Anti-RAD51 rabbit antibody was used as primary antibody (Sigma-Aldrich Cat# SAB2101936, RRID:AB_10607384), then secondary anti-rabbit antibody conjugated to alexafluor 680 (GAR 700: Molecular Probes Cat# A-21076, RRID:AB_2535736) was used for the detection. The quantification of monomer and cross-linked oligomers was performed by an Odyssey infrared imaging system scanner (LI-COR, Biosciences, Lincoln, NE, USA).

RAD51 [3] = molecular target: T2, RAD51; assay: DNA binding assay by bio-layer interferometry (BLItz), RAD51 pre-incubated with drug: ssDNA-RAD51 association / nucleofilament formation; settings: for inhibition at 20 µM: read-out: Inhibition of the association of RAD51 with ssDNA (reduction of nucleofilament formation); for Effect on ssDNA-RAD51 association: RAD51 2 µM pre-incubated with drug, 40 µM of each molecule (Figure 3A)
Procedure: We have evaluated the steps preceding D-loop formation, namely the formation of the nucleofilament of RAD51. We investigated the effect of DIDS and its derivatives on ssDNA binding and the nucleofilament formation functions of RAD51 by bio-layer interferometry. Two approaches were undertaken: (i) to determine the impact of drugs on RAD51-ssDNA binding and (ii) to evaluate the ability of drugs to dissociate RAD51 nucleofilament. Concerning the first approach, we pre-incubated RAD51 with the drug of interest for 5 min before measuring ssDNA-RAD51 binding efficiency. […] At a concentration of 20 μM, DAZDS inhibits the association of RAD51 with ssDNA by more than 80% (Figure 3C,E), while at the same concentration the SITS slightly reduces the formation of the nucleofilament by about 10–20% (Figure 3D,E).
as §1, §2

[4] = tested on: fibroblast and prostatic cancer cells; assay: Cytotoxicity (data not shown); assay type: cell-based
RAD51 foci formation = tested on: RAD51 foci formation; design: method as in earlier work; settings: leukemia cells / B cells ref 21, Muramatsu et al.; cited from earlier work
RAD51 [5] = tested on: RAD51; design: method as in PMID 19336413; settings: absence or presence of ATP has no influence ref 20; cited from earlier work
[6] = design: method as in PMID 18642799; settings: aqueous solution ref 30; cited from earlier work
RAD51 (Homo sapiens) = assay: BLI; settings: 1 mM ATP, RAD51 pre-incubated with DAZDS 20 uM, BLI (BLItz): PBS, 2 uM RAD51, biotinylated polydT 1 uM on streptavidin sensor, drug pre-incubation 10 min on ice (Methods; 5 min in Results), assay …
[7] = D-loop formation by RAD51, 1 to 100 µM of each molecule, three independent experiments, read-out: IC50 determination from D-loop data

Molecule	Effect on nucleofilament stability (dissociation of RAD51 nucleofilament) (RAD51 nucleofilament)	IC50 (RAD51 [1]; [7]) [µM]	Effect on D-loop structure formation (RAD51 [1])	Effect on oligomer/monomer migration profile (self-association of RAD51) (RAD51 [2])	Decrease of polymerization rate (oligomer/monomer form intensity ratio) (RAD51 [2])	inhibition at 20 µM (RAD51 [3]; 20 µM of drug, RAD51 2 µM pre-incubated, after 50 s) [%]	Effect on ssDNA-RAD51 association (RAD51 [3])	Cytotoxicity ([4]; cells not given, in contrast to DIDS)	RAD51 foci formation (RAD51 foci formation)	RAD51 binding to ssDNA or dsDNA in the presence of the drug (RAD51 [5])	Stability in aqueous solution [6]	RAD51 nucleofilament formation (RAD51 [3]; from 10 µM of drug, RAD51 2 µM pre-incubated)	Cytotoxicity ([4]; fibroblast and prostatic cancer cells, data not shown)	IC50 (RAD51 [1]) [µM]	IC50 (RAD51 [1]; read-out: IC50 determination from D-loop data, D-loop formation by RAD51, 1 to 100 µM of each molecule, three independent experiments) [µM]	inhibition at 20 µM (RAD51 [3]) [%]	binding signal (% inhibition of association) (RAD51 (Homo sapiens))
Nc1ccc(C=Cc2ccc(N)cc2S(=O)(=O)O)c(S(=O)(=O)O)c1 [DADS, 4,4′-diaminostilbene-2,2′-disulfonic acid]	not able to dissociate the nucleofilament	> 100	no effect	no effect on the self-association of RAD51	no effect												
[N-]=[N+]=Nc1ccc(C=Cc2ccc(N=[N+]=[N-])cc2S(=O)(=O)O)c(S(=O)(=O)O)c1 [DAZDS, 4,4′-diazidostilbene-2,2′-disulfonic acid]	totally dissociated the structure	41.3	significant inhibitory effect	decrease of oligomer forms in favor of RAD51 monomer	about 40%	> 80	inhibitory effect	weak cytotoxicity									
O=S(=O)(O)c1cc(N=C=S)ccc1C=Cc1ccc(N=C=S)cc1S(=O)(=O)O [DIDS, 4,4′-diisothiocyanatostilbene-2,2′-disulfonic acid]	totally dissociated the structure	0.9	inhibits D-loop intermediate structure in a dose-dependent manner	decrease of oligomer forms in favor of RAD51 monomer	about 40%		inhibitory effect		inhibit RAD51 foci formation	unable to bind ssDNA or dsDNA	unstable in aqueous solution	totally inhibited	relatively cytotoxic				
O=[N+]([O-])c1ccc(C=Cc2ccc([N+](=O)[O-])cc2S(=O)(=O)O)c(S(=O)(=O)O)c1 [DNDS, 4,4′-dinitrostilbene-2,2′-disulfonic acid]	not able to dissociate the nucleofilament		no effect	no effect on the self-association of RAD51	no effect									> 100	≤ 100		
CC(=O)Nc1ccc(C=Cc2ccc(N=C=S)cc2S(=O)(=O)O)c(S(=O)(=O)O)c1 [SITS, 4-acetamido-4′-isothiocyanatostilbene-2,2′-disulfonic acid]			significant inhibitory effect	decrease of oligomer forms in favor of RAD51 monomer	about 40%		inhibitory effect							29		10 to 20	
polydT																	> 80
